Paper PMC10628895, “Conformationally Selective 2-Aminotetralin Ligands Targeting the alpha2A- and alpha2C-Adrenergic Receptors” (ACS Chemical Neuroscience, 2023)
Where two headings read alike, the source gives them in different places.

What was measured:
human wild-type α2AR [1] = target: T1, human wild-type α2AR (Homo sapiens, UniProt P08913); test: Radioligand binding with [3H]rauwolscine (competition and saturation), membranes of transfected HEK293 cells; parameters: host or cells: mouse connective-tissue cells stably expressing the receptor
T1 sequence (P08913 1-465): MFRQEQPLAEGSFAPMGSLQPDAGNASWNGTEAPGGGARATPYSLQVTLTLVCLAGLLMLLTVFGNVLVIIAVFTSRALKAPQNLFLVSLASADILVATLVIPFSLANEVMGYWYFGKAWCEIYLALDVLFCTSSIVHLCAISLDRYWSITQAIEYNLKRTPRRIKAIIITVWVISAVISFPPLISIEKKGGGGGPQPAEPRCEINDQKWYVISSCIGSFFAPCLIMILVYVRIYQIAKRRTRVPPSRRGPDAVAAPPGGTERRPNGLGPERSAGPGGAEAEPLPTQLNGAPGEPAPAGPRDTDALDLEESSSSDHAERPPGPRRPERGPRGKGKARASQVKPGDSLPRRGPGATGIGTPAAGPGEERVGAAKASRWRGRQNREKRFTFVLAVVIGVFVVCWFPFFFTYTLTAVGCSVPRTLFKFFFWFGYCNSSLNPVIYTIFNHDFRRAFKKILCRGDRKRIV

human wild-type α2CR [2] = target: T2, human wild-type α2CR (Homo sapiens, UniProt P18825); test: as above; parameters: host or cells: mouse connective-tissue cells stably expressing the receptor
T2 sequence (P18825 1-462): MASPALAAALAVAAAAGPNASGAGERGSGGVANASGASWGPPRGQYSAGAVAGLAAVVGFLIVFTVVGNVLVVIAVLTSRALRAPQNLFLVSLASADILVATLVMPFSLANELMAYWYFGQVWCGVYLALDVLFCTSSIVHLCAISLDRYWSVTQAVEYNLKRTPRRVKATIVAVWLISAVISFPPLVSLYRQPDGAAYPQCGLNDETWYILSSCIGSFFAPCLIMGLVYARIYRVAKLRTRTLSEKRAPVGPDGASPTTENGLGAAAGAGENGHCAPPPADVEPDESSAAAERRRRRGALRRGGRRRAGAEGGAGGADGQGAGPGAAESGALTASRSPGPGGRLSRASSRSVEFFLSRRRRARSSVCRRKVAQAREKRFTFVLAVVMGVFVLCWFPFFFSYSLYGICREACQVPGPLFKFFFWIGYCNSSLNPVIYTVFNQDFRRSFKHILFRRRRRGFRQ

human wild-type α2CR [3] = target: T2, human wild-type α2CR; test: as above; parameters: host or cells: mouse connective-tissue cells stably expressing the receptor; conditions: [3H]rauwolscine competition, mean ± SD, read-out: Affinity (Ki ± SD; nM) α2CR
Protocol: Cells were grown in 10-cm plates and allowed to reach log growth phase (equivalent to about 70–90% confluency) before transfection. A transfection cocktail containing 3 mL of Opti-MEM (Gibco, Waltham, MA), 10 μg of cDNA, and 30 μL of linear polyethyleneimine “max” (molecular weight ∼ 40 000 g/mol, Polysciences Inc., Warrington, PA) was added to each plate and then incubated with an additional 3 mL of supplemented MEM for 48 h. Human wild-type α2-adrenergic GPCR clones, encoded in a pcDNA3.1(+) vector, were obtained from the cDNA Resource Center (Bloomsburg, PA). Cells were transiently transfected to express the α2AR or α2CR, and membranes were isolated for use in radioligand binding assays.
Cell membrane isolates were obtained following transfection procedure via a series of three 10-min, 12000g centrifugations homogenized via a tissue grinder. Saturation and competitive radioligand displacement assays conducted in 96-well assay plates were performed using membrane isolates. The bicinchoninic acid (BCA) protein assay (Thermo Scientific) kit was used to quantify protein expression.
Each concentration was assessed in quadruplicate, and each competitive binding assay was performed in at least three distinct replicates. Nonspecific binding was determined using 10 μM clozapine. Data were analyzed using the nonlinear regression function “One-site-Fit Ki” in Prism, wherein the Ki was calculated from the experimentally derived IC50 via the Cheng–Prusoff equation[58] [drawing 1]

human wild-type α2CR [4] = target: T2, human wild-type α2CR; test: cAMP accumulation, LANCE Ultra cAMP TR-FRET immunoassay, cells stably expressing α2CR; conditions: for functional activity at the α2CR (in words): cAMP formation
Protocol: (§1) Lofexidine was chosen as the reference ligand due to its ongoing use in in vivo studies evaluating 5-SATs for alleviation of opioid withdrawal symptoms.
(§2) Percent change in cAMP over forskolin-stimulated baseline was determined, and then normalized as a function of the percent change stimulated by lofexidine.
(§3) Receptor-mediated inhibition or stimulation of adenylyl cyclase was measured in cells stably expressing either α2AR or α2CR a LANCE Ultra cAMP assay kit (PerkinElmer, Waltham, MA), a time-resolved fluorescence energy transfer (TR-FRET) immunoassay, in a manner consistent with the manufacturer’s recommendations. Minor modifications were made to optimize conditions. […] Each concentration of ligand was applied in triplicate to the cells. A forskolin concentration of 600 nM was applied to the cells to generate a baseline, with the concentration chosen to accommodate the assay window. Cells were incubated for 30 min at 37 °C (α2AR assays) and for 2 h at room temperature (α2CR assays); time was chosen based on optimization-determined ideal conditions and activation kinetics.[59] Cells were then lysed and incubated with Eu-chelated tracer and Ulight anti-cAMP for 1 h. […] The concentration of cAMP present in each well was interpolated from this curve using the raw fluorescence value.

human wild-type α2AR [5] = target: T1, human wild-type α2AR; test: cAMP accumulation, LANCE Ultra cAMP TR-FRET immunoassay, cells stably expressing α2AR; conditions: for functional activity at the α2AR (in words): cAMP formation
Protocol: as §1, §2, §3

[6] = system: mouse models of autism spectrum disorder (ASD); parameters: method as in PMID 32566916, PMID 26011730, PMID 36473166; conditions: orally active; cited from earlier work
rodents = conditions: cited from earlier work
[7] = [3H]rauwolscine competition, HEK293 membranes, mean ± SD, read-out: Affinity (Ki ± SD; nM) α2AR
[8] = read-out: Emax α2AR, percent maximum response normalized to lofexidine, mean ± SD, NC = no significant change from forskolin-established baseline signaling

Compound	Ki (human wild-type α2AR [1]) [nM]	Ki (human wild-type α2CR [2]) [nM]	IC50 (human wild-type α2CR [4]) [nM]	functional activity at the α2CR (in words) (human wild-type α2CR [4])	also measured
CN(C)[C@@H]1CCc2c(cccc2-c2ccccc2)C1 [(R)-1]	320 ± 40	500 ± 75	–	–	–
CN(C)[C@@H]1CCc2c(cccc2-c2ccccc2F)C1 [(R)-2, (R)-5-(2-Fluorophenyl)-N,N-dimethyl-1,2,3,4-tetrahydronaphthalen-2-amine]	2500 ± 810	680 ± 120	–	–	–
CN(C)[C@@H]1CCc2c(cccc2-c2ccccc2Cl)C1 [(R)-3]	490 ± 65	500 ± 86	–	–	–
Fc1ccccc1-c1cccc2c1CC[C@@H](N1CCCC1)C2 [(R)-4, (R)-1-(5-(2-Fluorophenyl)-1,2,3,4-tetrahydronaphthalen-2-yl)pyrrolidine]	–	–	–	–	Ki (human wild-type α2CR [3]): 1500 ± 270 nM; Ki (human wild-type α2AR [1]; [7]): 1000 ± 170 nM
CCCN(CCC)[C@@H]1CCc2c(cccc2-c2ccccc2)C1 [(R)-5]	190 ± 30	580 ± 54	–	–	–
CCCN(CCC)[C@@H]1CCc2c(cccc2-c2ccccc2Cl)C1 [(R)-6]	94 ± 26	340 ± 95	–	–	–
CN(C)[C@@H]1CCc2c(cccc2-c2ccco2)C1 [(R)-8]	1300 ± 330	460 ± 72	–	–	–
CN(C)[C@@H]1CCc2c(cccc2-c2cccn2C)C1 [(R)-10]	130 ± 33	310 ± 39	–	–	–
CN(C)[C@H]1CCc2c(cccc2-c2ccccc2)C1 [(S)-1]	6.9 ± 1.8	35 ± 4.6	370 ± 1.9	inverse agonism	EC50 (human wild-type α2AR [5]): 1.4 ± 0.23 nM; functional activity at the α2AR (in words) (human wild-type α2AR [5]): agonist activity; Emax α2AR (human wild-type α2AR [5]; percent maximum response normalized to lofexidine, mean ± SD, NC = no significant change from forskolin-established baseline signaling, listed as 1 (5-PAT)): 24 ± 4.0%; Emax (human wild-type α2AR [5]; [8]): ~25%
CN(C)[C@H]1CCc2c(cccc2-c2ccccc2F)C1 [(S)-2, (2S)-5-(2′-fluorophenyl)-N,N-dimethyl-1,2,3,4-tetrahydronaphthalen-2-amine]	3.5 ± 0.97	19 ± 4.6	79 ± 1.7	inverse agonists	effect in mouse models of autism spectrum disorder (in words) [6]: improves repetitive behaviors, social behaviors, anxiety behaviors, and ameliorates seizures; EC50 (human wild-type α2AR [5]): 0.55 ± 0.15 nM; Emax (human wild-type α2AR [5]; [8]): 45 ± 1.9%; effect on locomotor activity (in words) (rodents): did not impact locomotor activity
CN(C)[C@H]1CCc2c(cccc2-c2ccccc2Cl)C1 [(S)-3]	5.1 ± 0.52	17 ± 4.1	130 ± 2.4	inverse agonists	EC50 (human wild-type α2AR [5]): 1.3 ± 0.18 nM; Emax (human wild-type α2AR [5]; [8]): 47 ± 2.9%
Fc1ccccc1-c1cccc2c1CC[C@H](N1CCCC1)C2 [(S)-4, (S)-1-(5-(2-Fluorophenyl)-1,2,3,4-tetrahydronaphthalen-2-yl)pyrrolidine]	–	–	48 ± 1.8	inverse agonists	fold higher potency than 5-PAT at the α2CR (human wild-type α2CR [4]; inverse agonist potency): about 9 fold; fold higher potency than CPT at the α2CR (human wild-type α2CR [4]; inverse agonist potency): ~3 fold; fold higher potency than FPT at the α2CR (human wild-type α2CR [4]; inverse agonist potency): about 2 fold; EC50 (human wild-type α2AR [5]): 1.1 ± 0.16 nM; Emax (human wild-type α2AR [5]; read-out: Emax α2AR): 46 ± 3%; Ki (human wild-type α2CR [3]): 5.2 ± 0.3 nM; Ki (human wild-type α2AR [1]; [7]): 5.7 ± 1.4 nM
CCCN(CCC)[C@H]1CCc2c(cccc2-c2ccccc2)C1 [(S)-5]	180 ± 19	370 ± 14	–	–	–
CCCN(CCC)[C@H]1CCc2c(cccc2-c2ccccc2Cl)C1 [(S)-6]	67 ± 11	280 ± 20	–	–	–
CN(C)[C@H]1CCc2c(cccc2-c2cccc3ccccc23)C1 [(S)-7]	27 ± 6.3	180 ± 38	260 ± 44	inverse agonism	fold less efficacious than the other 5-SATs at the α2CR (human wild-type α2CR [4]; inverse agonist efficacy): roughly 2 fold; EC50 (human wild-type α2AR [5]): 82 ± 8.3 nM; fold less potent than FPT at the α2AR (human wild-type α2AR [5]; agonist potency): 150 fold; functional activity at the α2AR (in words) (human wild-type α2AR [5]): agonist activity; Emax (human wild-type α2AR [5]; [8]): 14 ± 4.3%
CN(C)[C@H]1CCc2c(cccc2-c2ccco2)C1 [(S)-8]	59 ± 1.4	150 ± 3.5	–	–	–
CN(C)[C@H]1CCc2c(cccc2-c2cccs2)C1 [(S)-9]	6.2 ± 1.5	48 ± 0.57	–	neutral antagonist	functional activity at the α2AR (in words) (human wild-type α2AR [5]): no significant change over baseline; fold higher affinity compared to the FAT compound at α2AR (human wild-type α2AR [1]): 5–10 fold
CN(C)[C@H]1CCc2c(cccc2-c2cccn2C)C1 [(S)-10]	12 ± 0.41	50 ± 4.1	92 ± 5.9	–	IC50 (human wild-type α2AR [5]): 11 ± 0.26 nM; functional activity at the α2AR (in words) (human wild-type α2AR [5]): inverse agonist; fold higher affinity compared to the FAT compound at α2AR (human wild-type α2AR [1]): 5–10 fold
CC(Oc1c(Cl)cccc1Cl)C1=NCCN1 (centres unmarked) [Lofexidine, reference compound]	–	–	–	agonist	EC50 (human wild-type α2CR [4]): 4.9 ± 1.2 nM; Emax (human wild-type α2CR [4]; read-out: Emax α2CR): 100 ± 3.4%; Ki (human wild-type α2CR [3]): 22 ± 4.6 nM
